In patent US20050288347A1, “Certain triazole-based compounds, compositions, and uses thereof” (priority 2004, published 2005):
Entries after “also recorded” stand apart in the source; their conditions may differ.

Target: protein kinase
Assay: HTS ATP-utilizing enzyme assay, off-chip mobility-shift format (Caliper HTS 250)
Assay type: biochemical, human
Conditions: test compound 10 μM; for Kinase: kinase(s) for which the compound exhibits protein kinase inhibitory activity, active = greater than three-sigma from the mean activity of inactive compounds; for protein kinase against which the compound exhibits inhibitory activity (Table 3): active = activity greater than three-sigma from the mean of the predominately inactive population for that enzyme
Excerpt: The following procedures describe the reagent and plate preparation for a HTS of an ATP-utilizing enzyme, such as a protein kinase, run in an off-chip mobility-shift assay format. The following provides an HTS protocol for running a protein kinase HTS screen on a Caliper HTS 250 microfluidics system. The following parameters are dependent on the protein kinase used and can be determined by one skilled in the art as part of a typical assay development process. For example, the peptide substrate used can be identified from the current literature, by screening a peptide library of potential protein kinase substrates, or by other applicable means accepted in the field.
The following table provides typical screen assay parameters appropriate for a Caliper HTS 250 microfluidics system.
The reagents and buffers listed in the following table are generally applicable for developing and running an HTS screen on a human protein kinase using the Caliper HTS 250 system.
The following reagents were prepared using the previously described buffers.
A 2× Master Buffer solution was prepared by combining 200 mL of 1 M HEPES, pH 7.5, 2 mL of 10% Triton X-100, 20 mL of 10% BSA, and 778 mL of H2O.
Assays to determine the kinase inhibitory activity of chemical entities of the present disclosure were performed using a Caliper HTS 250 microfluidics device, Greiner U-bottom assay plates, a Multidrop for transfer of reagents, and Biomek FX (AMNCBM03) software. Initially, 2.4 μL of a 1 mM solution of a test compound in 100% DMSO was added to a well of the Greiner U-bottom plate. A single Greiner U-bottom plate having 24×16 wells could include multiple test compounds. […] Using the Biomek FX, 10 μL of 0.5 M EDTA was added by the span-8 to wells, indicated as 100% Control and 2.4 μL of 100% DMSO was added by the span-8 to wells, indicated as 0% Control. […] The total reaction volume in each well was 25 μL, and the concentration of the test compound was 10 μM. The assay plate was incubated for 2.5 hrs at 20° C. to 22° C. […] The inhibition of the ATP-utilizing enzyme, such as a particular protein kinase, was determined by measuring the ratio of the peptide substrate to phosphorylated product for each well of the assay plate using the Caliper HTS 250 system.
The use of three-sigma statistical limits represents a conservative method for declaring potential hits among targets. The three-sigma activity, as well as the mean population activity, can be different for each target enzyme.

SMILES | Kinase | protein kinase against which the compound exhibits inhibitory activity (Table 3)
CCn1c(S)nnc1COc1ccc(OC)cc1 [4-ethyl-5-((4-methoxyphenoxy)methyl)-4H-1,2,4-triazole-3-thiol] | GSK3-β; also recorded: GSK3-α; also recorded: CDK2-cyclinE | 
COc1ccc(NCc2nnc(SCC(=O)Nc3cccc(Cl)c3)n2-c2ccc(C)cc2)cc1 | PDGFRR-α and FYN and AURORA-A | 
Cc1cccc(-c2nnc(SCc3ccc(C(=O)O)cc3)[nH]2)c1 [4-((5-m-tolyl-4H-1,2,4-triazol-3-ylthio)methyl)benzoic acid] |  | FLT-3; also recorded: DYRK2; also recorded: AURORA-A
O=C(CSc1nncn1-c1ccccn1)Nc1nccs1 [2-(4-(pyridin-2-yl)-4H-1,2,4-triazol-3-ylthio)-N-(thiazol-2-yl)acetamide] | GSK3-α | 
COCCCn1c(SCc2ccc(Cl)cc2)nnc1-c1ccc(C(C)(C)C)cc1 |  | DAPK1
O=C(O)c1ccc(CSc2nnc(-c3cccs3)[nH]2)cc1 [4-((5-(thiophen-2-yl)-4H-1,2,4-triazol-3-ylthio)methyl)benzoic acid] |  | DYRK2; also recorded: AURORA-A; also recorded: FLT-3
CCn1c(SCC(=O)c2cc(OC)ccc2OC)nnc1C(C)C | PDGFRR-α and FLT-3 and FYN | 
CCCOc1ccc(CNC(=O)CSc2nnc(-c3ccc(OC)c(OC)c3)n2C)cc1 | AURORA-A; also recorded: DYRK2 | 
CSc1nnc(-c2ccc(O)cc2)n1-c1ccccc1 [4-(5-(methylthio)-4-phenyl-4H-1,2,4-triazol-3-yl)phenol] |  | GSK3-β; also recorded: GSK3-α; also recorded: CDK2-cyclinA
Cc1ccc(-n2c(S)nnc2CNc2ccc(C)c(Cl)c2)cc1 | GSK3-α; also recorded: AURORA-A | 
N#CCSc1nnc(C2CCCCC2)[nH]1 [2-(5-cyclohexyl-4H-1,2,4-triazol-3-ylthio)acetonitrile] | GSK3-α | 
COc1ccc(-c2nnc(SCC(=O)NNC(=O)c3ccc(Br)cc3)n2C)cc1 |  | CHEK2; also recorded: GSK3-β; also recorded: GSK3-α
CCOc1ccc(NCc2nnc(SCC(=O)NCC3CCCO3)n2-c2ccccc2OC)cc1 (centres unmarked) | FYN | 
O=C1c2ccccc2C(=O)N1CCSc1nnc(-c2cccs2)[nH]1 [2-(2-(5-(thiophen-2-yl)-4H-1,2,4-triazol-3-ylthio)ethyl)isoindoline-1,3-dione] |  | AURORA-A; also recorded: GSK3-α; also recorded: DYRK2
FC(F)(F)Oc1ccc(-c2nnc(SCC3CC3)[nH]2)cc1 [3-(cyclopropylmethylthio)-5-(4-(trifluoromethoxy)phenyl)-4H-1,2,4-triazole] |  | FLT-3; also recorded: AURORA-A
CCn1c(CNc2ccc(C)cc2)nnc1SCc1ccc(Cl)c(Cl)c1 |  | AURORA-A; also recorded: CDK2-cyclinE
c1csc(-c2nnc(SCc3ccncc3)[nH]2)c1 [4-((5-(thiophen-2-yl)-4H-1,2,4-triazol-3-ylthio)methyl)pyridine] |  | DYRK2; also recorded: AURORA-A; also recorded: FLT-3
COc1ccccc1-c1nnc(N)[nH]1 [5-(2-methoxyphenyl)-4H-1,2,4-triazol-3-amine] | AURORA-A; also recorded: CDK2/CyclinE; also recorded: CHEK2 | 
CCOC(=O)c1ccc(CSc2nnc(-c3ccc([N+](=O)[O-])cc3)[nH]2)o1 |  | AURORA-A
CCCCSc1nnc(-c2cccc(C(F)(F)F)c2)[nH]1 [3-(butylthio)-5-(3-(trifluoromethyl)phenyl)-4H-1,2,4-triazole] |  | AURORA-A; also recorded: FLT-3; also recorded: GSK3-α
CCn1c(S)nnc1-c1ccc(S(=O)(=O)N2CCN(C)CC2)cc1 | GSK3-α; also recorded: GSK3-β | 
COc1ccc(NCc2nnc(SCC(=O)Nc3ccc(C(C)=O)cc3)n2C)cc1 | PDGFRR-α and FLT-3 and FYN | 
CCn1c(SCC(=O)Nc2nc3c(s2)CCCC3)nnc1-c1cc2ccccc2cc1O | AURORA-A; also recorded: CDK2-cyclinE | 
COc1ccc(NCc2nnc(S)n2-c2cccc(Cl)c2)cc1 | PDGFRR-α and AURORA-A and FYN | 
CCOC(=O)CCSc1nnc(-c2cccc(C(F)(F)F)c2)[nH]1 [ethyl 3-(5-(3-(trifluoromethyl)phenyl)-4H-1,2,4-triazol-3-ylthio)propanoate] |  | AURORA-A; also recorded: FLT-3; also recorded: GSK3-β
CCOC(=O)c1sc(NC(=O)CSc2nnc(-c3ccc(O)cc3)n2CC2CCCO2)nc1C (centres unmarked) | GSK3-β; also recorded: GSK3-α | 

More lines, now with the values ahead:

Kinase | protein kinase against which the compound exhibits inhibitory activity (Table 3) | SMILES
CHEK2 |  | N#CCSc1nnc(-c2ccco2)n1-c1ccccc1 [2-(5-(furan-2-yl)-4-phenyl-4H-1,2,4-triazol-3-ylthio)acetonitrile]
DAPK1 |  | Cc1ccc(-c2nnc(SC(C)C(=O)O)n2-c2ccc(C)cc2)cc1 (centres unmarked) [2-(4,5-dip-tolyl-4H-1,2,4-triazol-3-ylthio)propanoic acid]
CDK2-cyclinE |  | Cc1ccc(-n2c(Cc3ccccc3)nnc2SCC(=O)N2c3ccccc3Sc3ccccc32)cc1
GSK3-β; also recorded: GSK3-α |  | Cn1c(S)nnc1COc1cccc2ccccc12 [4-methyl-5-((naphthalen-1-yloxy)methyl)-4H-1,2,4-triazole-3-thiol]
AURORA-A |  | COc1ccccc1-n1c(SCC(=O)Nc2cccc(C(=O)O)c2)nnc1-c1ccccc1O
AURORA-A and FYN |  | CCOC(=O)CSc1nnc(-c2ccccc2OC)n1C [ethyl 2-(5-(2-methoxyphenyl)-4-methyl-4H-1,2,4-triazol-3-ylthio)acetate]
AURORA-A |  | CCn1c(CNc2cccc(Cl)c2)nnc1SCC(=O)Nc1ccccc1C(=O)OC
GSK3-α and AKT1 |  | COc1ccc(-n2c(SC(C)C(=O)Nc3ccccc3)nnc2-c2ccc(O)cc2)cc1 (centres unmarked)
 | c-TAK1 | CCC(c1ccccc1)c1nnc(SCc2ccccc2)n1CCc1ccc(C)cc1 (centres unmarked) [3-(benzylthio)-4-(4-methylphenethyl)-5-(1-phenylpropyl)-4H-1,2,4-triazole]
PDGFRR-α |  | CCc1ccccc1NC(=O)CSc1nnc(COc2ccc(C)cc2)n1C
 | GSK3-α | Oc1ccc(-c2nnc(SCCN3CCCCC3)n2Cc2ccco2)cc1
 | ROCK2 | COc1ccccc1-n1c(SCC(=O)c2ccc(Cl)s2)nnc1-c1cccc(Cl)c1
 | AURORA-A | Cc1ccc(-n2c(SCc3ccccc3)nnc2-c2cccnc2)cc1 [3-(5-(benzylthio)-4-p-tolyl-4H-1,2,4-triazol-3-yl)pyridine]
 | FYN | CCn1c(SCC(=O)NNC(=O)Cc2ccccc2)nnc1-c1ccc(Cl)cc1
GSK3-α |  | O=C(CSc1nnc(Cn2nnc(-c3ccccc3)n2)n1-c1ccccc1)Nc1ccccc1
PDGFRR-α and FYN |  | CCOC(=O)CN(C(=O)CSc1nnc(-c2ccc([N+](=O)[O-])cc2)n1C)c1ccccc1
FYN |  | Cc1nnc(SCC(=O)Nc2cccc(N)c2)n1-c1ccccc1
GSK3-α |  | O=C(CSc1nnc(Cc2ccccc2)[nH]1)c1ccc2c(c1)OCCO2
 | AURORA-A | COc1ccccc1-n1c(SCC(=O)Nc2cc(NC(=O)c3ccco3)ccc2C)nnc1-c1ccccc1O
PDGFRR-α |  | C=C(C)Cn1c(S)nnc1-c1ccccc1Br [5-(2-bromophenyl)-4-(2-methylallyl)-4H-1,2,4-triazole-3-thiol]
AURORA-A |  | COCCn1c(SCC(=O)Nc2ccccc2F)nnc1-c1cc2ccccc2cc1O
AURORA-A |  | Cc1ccc(NC(=O)CSc2nnc(-c3ccccc3O)n2-c2ccc(C)cc2)cc1
CDK2 and CDK1 and CHEK2 |  | CCn1c(CNc2cccc(C(F)(F)F)c2)nnc1SCC#N
 | AURORA-A | COc1ccccc1-n1c(SCC(=O)Nc2cccc(NC(=O)c3ccco3)c2)nnc1-c1ccccc1O
MSK1 |  | C=C(C)Cn1c(SCC(=O)O)nnc1-c1ccc(OC)cc1
MAPKAPK-2 |  | Cc1cc(C)nc(SCc2nnc(SCC(=O)Nc3ccccc3)n2-c2ccccc2)n1
AURORA-A |  | COc1ccc(-c2nnc(SCC(=O)Nc3ccccc3O)n2-c2ccccc2)cc1OC
FYN |  | C=CCn1c(SCC(=O)Nc2cccc([N+](=O)[O-])c2)nnc1-c1ccncc1
HCK |  | Cn1c(Cc2ccccc2)nnc1SCC(N)=O [2-(5-benzyl-4-methyl-4H-1,2,4-triazol-3-ylthio)acetamide]
PDGFRR-α |  | COc1ccc(OCc2nnc(SC(C)C(=O)Nc3ccccc3C)n2C)cc1 (centres unmarked)
